From patent publication US20120309773A1, “HETEROCYCLIC COMPOUNDS AS JANUS KINASE INHIBITORS” (priority 2009, published 2012)

melting point | SMILES
238.4 °C | O=C(NC1CC1)c1cc(Nc2nc(N3CCCC3c3ccccn3)nc3ccoc23)[nH]n1 (centres unmarked) [Compound 12E, N-cyclopropyl-5-(2-(2-(pyridin-2-yl)pyrrolidin-1-yl)furo[3,2-d]pyrimidin-4-ylamino)-1H-pyrazole-3-carboxamide]
250.1 °C | O=C(NC1CCC1)c1cc(Nc2nc(N3CCCC3c3ccccn3)nc3ccoc23)[nH]n1 (centres unmarked) [Compound 13E, N-cyclobutyl-5-(2-(2-(pyridin-2-yl)pyrrolidin-1-yl)furo[3,2-d]pyrimidin-4-ylamino)-1H-pyrazole-3-carboxamide]
274.3 °C | O=C(NC1CCC1)c1cc(Nc2nc(N3CCCC3c3ccccn3)nc3ccoc23)n[nH]1 (centres unmarked) [Compound 14F, N-cyclobutyl-3-(2-(2-(pyridin-2-yl)pyrrolidin-1-yl)furo[3,2-d]pyrimidin-4-ylamino)-1H-pyrazole-5-carboxamide]
96.8 °C | O=C(NC1CC1)c1cc(Nc2nc(N3CCC[C@H]3CO)nc3ccoc23)n[nH]1 [Compound 15C, (S)—N-cyclopropyl-3-(2-(2-(hydroxymethyl)pyrrolidin-1-yl)furo[3,2-d]pyrimidin-4-ylamino)-1H-pyrazole-5-carboxamide]
270.8 °C | CN(C)c1nc(Nc2cc(C(=O)NC3CCC3)n[nH]2)c2occc2n1 [Compound 19A, N-cyclobutyl-5-(2-(dimethylamino)furo[3,2-d]pyrimidin-4-ylamino)-1H-pyrazole-3-carboxamide]
